Experimental data from US12146880B2, “Artificial transcription factors comprising a sliding domain and uses thereof” (priority 2013, dated 2024).
Where two headings read alike, the source gives them in different places. Primed or numbered codes have the meaning given here. Ends that are not written are not given here. TMR = fluorescent label conjugated to the Cys side chain; TMR″ = tetramethylrhodamine label

Experiments:
phage λ DNA = assay: Sliding assay: total internal reflection fluorescence microscopy of single TMR-labeled peptides on flow-stretched phage λ DNA; format: biochemical, bacteriophage λ; settings: for estimated 1D diffusion constants, D: peptides diffusing along λ-DNA, low salt buffer (FIG. 6); for 1D diffusion constant, D+SD / 1D diffusion constant, D+SEM: single molecule sliding trajectories; for 1D diffusion constant, D+SD: spread = standard deviation (FIGS. 7-12); for 1D diffusion constant, D+SEM: spread = standard mean error (FIGS. 7-12)
Excerpt: In vitro biophysical characterization of search process may be as follows. The search dynamics may be studied in vitro by directly observing fluorescently tagged compounds search DNA and bind their targets with a fluorescence microscope. In an exemplary method, linear fragments of DNA derived from bacteriophage λ (˜50 kb) are tethered on a glass coverslip and illuminated with TIRF microscopy. Flowing fluorescently tagged peptides over the coverslip stretches out the DNA hydrodynamically, and the peptides may be directly visualized as they search the DNA. Using computational algorithms, the peptides may be tracked and biophysical parameters such as the rate of diffusive translocation on DNA may be calculated from the estimated trajectories.
[…]. A flow cell was constructed on top of the cover slip such that when laminar flow is applied, the DNA stretches in the direction of flow and orients itself parallel to and in close proximity to the surface of the cover slip. Evanescent waves from a laser reflecting off the coverslip-buffer interface were used to illuminate a very small volume (˜1 pL) with a few hundred nanometers of the glass surface. The interaction of a single, TMR-labeled peptide with DNA was visualized by a CMOS camera (ORCA-Flash 4.0 from Hamamatsu) with 5 ms time-resolution. Despite the optical resolution limit imposed by diffraction, the centroid position of each signal in each frame is determined with sub-diffraction-limited resolution, typically 1-30 nm for bright fluorescent conjugates.
Labeled peptides were infused at concentration of 100-200 pM at rates of 20-50 mL/hour. High flow rates were chosen to drive the longitudinal DNA fluctuation faster than the imaging frame rate. The assay buffer consisted of 10 mM PBS (2 mM NaCl, 0.1 mM β-mercaptoethanol, 0.05 mM EDTA, 5% (v/v) glycerol, 0.01% (v/v) Tween-20, pH 6.8).

λ-DNA [1] = settings: cited from earlier work; for D1 ± s.e.: results from Xiong et al
λ-DNA [2] = assay: Single molecule flow stretching experiments (1D diffusion of dye-labeled molecular sleds on λ-DNA); format: biochemical, bacteriophage λ; settings: for D1 ± s.e.: Table S5, 2 mM NaCl buffer, pH 7.4, >50 trajectories
Excerpt: Single Molecule Flow Stretching Experiments: The experimental details have been described by Xiong et al. Briefly, flow cells were constructed by sandwiching a double-sided tape with pre-cut channels between a poly(ethylene glycol) (PEG) functionalized coverslip and a PDMS slab containing inlet and outlet holes. The biotin-λ-DNA was made by ligating a DNA oligo with a biotin attached to the 5′ overhang of λ-DNA, and then immobilized onto the flow channel surface by utilizing biotin and streptavidin chemistry. Samples were infused at 10-400 pM concentrations at rates of 25 ml/hr. The assay buffer consisted of 10 mM phosphate buffer, 2 mM NaCl, 50 μM EDTA, 20 mM ethanol, 5% (v/v) glycerol, 0.01% Tween-20 and 0.1% (v/v) $-mercaptoethanol, and the pH was adjusted to 7.4 by adding aliquots of concentrated NaOH solution. Individual dye-labeled molecules were imaged by using a home-built total internal reflection fluorescence microscope based on a Nikon Ti body with a Hamamatsu ORCA-Flash 4.0 VI camera. Applicants used customized single particle tracking software to process the raw image data^11.
To study the motion of single molecules bound to DNA, Applicants applied a single-molecule flow-stretching assay that prepares long double-stranded DNA molecules as spatially extended templates for analysis of binding and transport activity of molecular sleds labeled with fluorescent dye molecules. […] In this assay (see a schematic in FIG. 19), functionalized DNA, e.g., biotin-k-DNA, was immobilized to a flow channel surface by one end and a laminar flow was applied to flow stretch the DNA. The flow rate was chosen so that the contribution of DNA fluctuations to the apparent motion of DNA-bound molecules along the DNA is negligible and the trajectories of single molecules were tracked by time-lapse fluorescence imaging. Here, Applicants applied the flow-stretching assay to study one-dimensional diffusion of modified peptides, peptide analogs and synthetic small molecules bound to DNA.

30 bp dsDNA [3] = assay: Fluorescence polarization (FP) DNA binding experiments; settings: Table S5; pH 7.4
30 bp dsDNA [4] = settings: Table S1; Cy3B conjugated to Cys residues; results from Xiong et al; cited from earlier work

(K)13: TMR-labeled lysine homopolymer of 13 residues, SEQ ID NO: 52 (KKKKKKKKKKKKK; also: TMR-labeled, place not given here)
estimated 1D diffusion constants, D (phage λ DNA): 17.3 ± 5.3 million bp²/s

C(-TMR)-(K)13: TMR conjugated to Cys residue, SEQ ID NO: 36 (C(TMR)KKKKKKKKKKKKK)
D1 ± s.e. (λ-DNA [1]; Table S3): 19.9 ± 1.3 M(bp^2/S)

C(-TMR)-(R)13: TMR conjugated to Cys residue, SEQ ID NO: 37 (C(TMR)RRRRRRRRRRRRR)
D1 ± s.e. (λ-DNA [1]; Table S3): 12.9 ± 0.5 M(bp^2/S)

Cy3B-pentaethylenehexamine [Cy3B-PEHA]
effect of increasing the salt concentration on the D1 value (λ-DNA [2]; 2 mM NaCl vs 20 mM NaCl buffers, pH 7.4 (FIG. 14)): does not increase | D1 ± s.e. (λ-DNA [2]): 10.1 ± 0.5 M(bp^2/S) | D1 ± s.e. (λ-DNA [2]; listed as PHEA-Cy3B): 10.1±0.5 M(bp^2/S) | Kd (30 bp dsDNA [3]): 1320 ± 248 nM

FHHHHH
estimated 1D diffusion constants, D (phage λ DNA): 14.9 ± 6.9 million bp²/s

GRKKRRQRRRPPQ (also: TMR label, place not given here) [TAT]
estimated 1D diffusion constants, D (phage λ DNA): 21 ± 7.5 million bp²/s

GVQSLKRRRCF [pVlc-Cy38]
D1 ± s.e. (λ-DNA [1]; Table S1, Cy3B conjugated to Cys residues): 35.1 ± 0.8 M(bp^2/S) | sliding by itself (one-dimensional diffusion constant) (λ-DNA [1]; literature reference 11 (Xiong)): 35.2±0.8 M(bp2/s) | Kd (30 bp dsDNA [4]): 378 ± 20 nM

KRARNTEAARRSRAR [GCN4 helix]
1D diffusion constant, D+SD (phage λ DNA): 12.8±5.5 ×10^6 bp^2s^−1 | 1D diffusion constant, D+SEM (phage λ DNA): 12.8±0.6 ×10^6 bp^2s^−1

KRARNTEAARRSRAR-GSGSGS-KRRR (KRARNTEAARRSRARGSGSGSKRRR) [GCN4 helix-linker-KRRR]
1D diffusion constant, D+SD (phage λ DNA): 11.3±4.1 ×10^6 bp^2s^−1 | 1D diffusion constant, D+SEM (phage λ DNA): 11.3±0.6 ×10^6 bp^2s^−1

KRARNTEAARRSRAR-GSGSGS-pVIc [GCN4 helix-linker-pVIc]
1D diffusion constant, D+SD (phage λ DNA): 9.6±4.3 ×10^6 bp^2s^−1 | 1D diffusion constant, D+SEM (phage λ DNA): 9.6±0.7 ×10^6 bp^2s^−1

KRRR ({TMR″}-KRRR)
estimated 1D diffusion constants, D (phage λ DNA): 20.3 ± 7.9 million bp²/s

NVKRRTHNVLERQRRNELKRSFFALRDQ [cMyc helix]
1D diffusion constant, D+SD (phage λ DNA): 12.8±5.0 ×10^6 bp^2s^−1 | 1D diffusion constant, D+SEM (phage λ DNA): 12.8±0.3 ×10^6 bp^2s^−1

STSRHKKLMFKTE ({TMR″}-STSRHKKLMFKTE) [C-terminal sequence of p53]
estimated 1D diffusion constants, D (phage λ DNA): 17.3 ± 5.3 million bp²/s

TMR-(K)13: TMR conjugated to the N-terminal amine, SEQ ID NO: 38 ({TMR″}-KKKKKKKKKKKKK)
D1 ± s.e. (λ-DNA [1]; Table S3): 8.9 ± 0.5 M(bp^2/S)

TMR-(R)13: TMR conjugated to the N-terminal amine, SEQ ID NO: 39 ({TMR″}-RRRRRRRRRRRRR)
D1 ± s.e. (λ-DNA [1]; Table S3): 7.7 ± 0.7 M(bp^2/S)
